Experimental data: patent US20180289957A1, “REMINERALISATION OF CALCIFIED TISSUE” (Reminova Ltd., priority 2008, published 2018)

System: extracted incisor tooth
Assay: Tooth-whitening effect on extracted incisor tooth, images before and after treatment
Conditions: 2 minutes pre-conditioning with solution, no remineralising agent
Text: This image was taken prior to any treatment being carried out.
The dark discolourations in the enamel of the crown of the tooth adjacent to the cavity have also disappeared.

OCl [hypochlorite, sodium hypochlorite] was tested, and the “tooth discolouration, difference versus before treatment” value was “very little difference”.
